Like-named read-outs stand apart in the source and are kept apart here.
Assays:
[1] = system: cortical neuron cultures; assay: Cortical neuron assay (neurite outgrowth in dissociated cortical neuron cultures); type: cell-based, rat; settings: Rattus norvegicus, Cortical neurone; 72 hours treatment, neurite outgrowth; read-out: EC50 in cortical neuron assays
Procedure: Dissociated cortical neuron cultures were prepared as previously described (Liu et al., Screening of Immunophilin Ligands by Quantitative Analysis of Neurofilament Expression and Neurite Outgrowth in Cultured Neurons and Cells, J. Neurosci. Methods, 2007 Jul. 30; 163(2):310-20).
Briefly, embryonic day 15 rat fetuses were collected and dissected in ice-cold PBS. Dissected cortices were pooled together and transferred to an enzymatic dissociation medium containing papain. After 30 minutes, the tissue was mechanically triturated with a fire-polished glass Pasteur pipette. Single-cell suspensions in complete media were seeded on poly-L-ornithine and laminin coated 96-well plates. After 24 hours, cultures were treated with various concentrations of compound for 72 hours. The cultures were then fixed and stained with an anti-tubulin primary antibody (TUJ-1) and a fluorescent-tagged secondary antibody. Neurite outgrowth was determined by using the Enhanced Neurite Outgrowth (ENO) algorithm with the Cellomics ArrayScan and expressed as average neurite length or total neurite length per cell.

[2] = system: Mesencephalic dopaminergic neuron cultures; assay: Dopaminergic uptake assay (3H-dopamine uptake after MPP+ exposure); type: cell-based, rat; settings: read-out: EC50 in dopaminergic uptake assays
Procedure: Mesencephalic dopaminergic neuron cultures were prepared as described in Pong et al., J. Neurochem. 69: 986-994, 1997, which is incorporated herein by reference in its entirety. Embryonic day 15 (E15) rat fetuses were collected and dissected in ice-cold phosphate-buffered saline (PBS). The ventral piece of tissue compromising the mesencephalic dopaminergic region was dissected out. Dissected pieces of tissue were pooled together and transferred to an enzymatic dissociation medium containing 20 IU/mL papain in Earle's balanced salt solution (Worthington Biochemical, Freehold, N.J., USA) and incubated for 60 minutes at 37° C. After enzymatic dissociation, the papain solution was aspirated and the tissue mechanically triturated with a fire-polished glass Pasteur pipette in complete medium (equal volumes of minimum essential medium (MEM) and F-12 nutrient mixture (GibcoBRL) supplemented with 0.1 mg/mL apotransferrin and 2.5 μg/mL insulin) containing 2,000 IU/mL DNase and 10 mg/mL ovomucoid protease inhibitor.
For dopamine uptake experiments, single-cell suspensions in complete media were seeded on poly-L-ornithine and laminin coated 24-well plates. The cultures were maintained for seven days prior to experimentation. […]
After 48 hours growth of mesencephalic dopaminergic neuron cultures following MPP+ exposure, high-affinity 3H-dopamine uptake was performed using a modified method described by Prochiantz et al., Nature 293: 570-572, 1981, which is incorporated herein by reference. Cultures were washed with pre-warmed PBS containing 5.6 mM glucose and 1 mM ascorbic acid. Cultures were then incubated for 15 minutes at 37° C. with 50 nM 3H-dopamine (31 Ci/mmol, DuPont-NEN, Wilmington, Del., USA). The cultures were washed twice with buffer and lysed with 0.5N NaOH. The lysate was transferred to a scintillation vial containing Ultima Gold scintillation cocktail and radioactivity was determined with a liquid scintillation counter. Alternatively, culture lysates can be washed twice with buffer, incubated for 2 hours at room temperature with Optiphase Supermix scintillation cocktail (Wallac Scintillation Products, Gaithersburg, Md., USA), and radioactivity measured with a liquid scintillation counter.

[3] = system: Spinal cord neuron cultures; assay: Spinal cord neuron assay; type: cell-based; settings: Rattus norvegicus, 72 hours treatment, read-out: EC50 in spinal cord neuron assays
Procedure: Spinal cord neuron cultures were prepared from embryonic day 15 (E15) rat embryos (Liu et al., Screening of Immunophilin Ligands by Quantitative Analysis of Neurofilament Expression and Neurite Outgrowth in Cultured Neurons and Cells, J. Neurosci. Methods, 2007 Jul. 30; 163(2):310-20). The embryos were collected and their spinal cords were removed in ice-cold phosphate-buffered saline (PBS) without Ca^2+ and Mg^2+. Dissected pieces of spinal cord tissue were pooled together and transferred to an enzymatic dissociation media containing 20 IU/mL papain in Earle's balanced salt solution (Worthington Biochemical, Freehold, N.J.) and incubated for 30 minutes at 37° C. After enzymatic dissociation, the papain solution was aspirated and the tissue mechanically triturated with a fire-polished Pasteur pipette in complete media [Neurobasal Medium with B-27 supplement (Gibco, Grand Island, N.Y.), 100 IU/mL penicillin, 100 µg/mL streptomycin, […] aphidicolin, 0.5 mM glutamate] containing 2,000 IU/mL DNase and 10 mg/mL ovomucoid protease inhibitor. Single-cell suspensions in complete media were plated on pre-coated poly-L-ornithine/laminin 96-well plates (Becton-Dickinson, Bedford, Mass.) at a density of 1.0×10^4 cells/well. Spinal cord neurons were maintained for 24 hours then exposed to vehicle or various concentrations of compound for 72 hours.

Row | Compound | EC50 ([2]; Rattus norvegicus, Neuron) [nM] | EC50 [3] [nM] | EC50 [2] [nM] | EC50 [1] [nM]
1 | CO[C@H]1C[C@@H]2CC[C@@H](C)[C@@](O)(O2)C(=O)C(=O)N2CCCC[C@H]2C(=O)O[C@H]([C@H](C)C[C@@H]2CC[C@@H](OC(=O)C(C)(CO)CO)[C@H](OC)C2)CC(=O)[C@H](C)/C=C(\C)[C@@H](O)[C@@H](OC)C(=O)[C@H](C)C[C@H](C)/C=C/C=C/C=C/1C [CCI-779, reference compound] | > 1000 |  |  | > 1000
2 | CO[C@H]1C[C@@H]2CC[C@@H](C)[C@@](O)(O2)C(=O)C(=O)N2CCCC[C@H]2C(=O)O[C@H]([C@H](C)C[C@@H]2CC[C@@H](O)[C@H](OC)C2)CC(=O)[C@H](C)/C=C(\C)[C@@H](O)[C@@H](OC)C(=O)[C@H](C)C[C@H](C)[C@@H]2C=C[C@H](/C=C/1C)ON2c1ccccc1 [Example 1, 9,27-dihydroxy-3-{2-[4-hydroxy-3-methoxycyclohexyl]-1-methylethyl}-10,21-dimethoxy-6,8,12,14,20,26-hexamethyl-37-phenyl-4,9,10,12,13,14,15,18,21,22,23,24,25,26,27,32,33,34,34a-nonadecahydro-3H-23,27-epoxy-18,15-(epoxyimino)pyrido[2,1-c][1,4]oxazacyclohentriacontine-1,5,11,28,29(6H,31H)-pentone] | < 1000 | < 1000 |  | < 1000
3 | CO[C@H]1C[C@@H]2CC[C@@H](C)[C@@](O)(O2)C(=O)C(=O)N2CCCC[C@H]2C(=O)O[C@H]([C@H](C)C[C@@H]2CC[C@@H](OC(=O)C(C)(C)Cc3ccccn3)[C@H](OC)C2)CC(=O)[C@H](C)/C=C(\C)[C@@H](O)[C@@H](OC)C(=O)[C@H](C)C[C@H](C)C2C=CC(/C=C/1C)ON2c1ccccc1 [Example 6, 9,27-dihydroxy-3-{-2-[4-hydroxy-3-methoxycyclohexyl]-1-methylethyl}-10,21-dimethoxy-6,8,12,14,20,26-hexamethyl-37-phenyl-4,9,10,12,13,14,15,18,21,22,23,24,25,26,27,32,33,34,34a-nonadecahydro-3H-23,27-epoxy-18,15-(epoxyimino) pyrido[2,1-c][1,4]oxazacyclohentriacontine-1,5,11,28,29(6H,31H)-pentone ester with-2,2-dimethyl-3′-(pyridin-2-yl)-propionic acid] | < 1000 | < 1000 |  | 
4 | CO[C@H]1C[C@@H]2CC[C@@H](C)[C@@](O)(O2)C(=O)C(=O)N2CCCC[C@H]2C(=O)O[C@H]([C@H](C)C[C@@H]2CC[C@@H](O)[C@H](OC)C2)CC(=O)[C@H](C)/C=C(\C)[C@@H](O)[C@@H](OC)C(=O)[C@H](C)C[C@H](C)C2C=CC(/C=C/1C)ON2c1c(Cl)cccc1Cl [Example 3] |  | < 1000 |  | < 1000

Continued, in another order:

Row | EC50 ([2]; Rattus norvegicus, Neuron) [nM] | EC50 [3] [nM] | EC50 [2] [nM] | Compound | EC50 [1] [nM]
5 | > 1000 |  |  | CO[C@H]1C[C@@H]2CC[C@@H](C)[C@@](O)(O2)C(=O)C(=O)N2CCCC[C@H]2C(=O)O[C@H]([C@H](C)C[C@@H]2CC[C@@H](O)[C@H](OC)C2)CC(=O)[C@H](C)/C=C(\C)[C@@H](O)[C@@H](OC)C(=O)[C@H](C)C[C@H](C)/C=C/C=C/C=C/1C [rapamycin] | > 1000
6 |  |  | < 1000 | Rapamycin phenyltriazolinedione | 

From patent US20090209527A1, “Methods for Using Rapamycin Analogues in the Treatment of Neurological Disorders” (Wyeth, priority 2008, published 2009)
